Data set [1] deals with T1, human calcitonin receptor, BHK tk'ts 13 cells (Homo sapiens, UniProt P30988).
T1 construct: expressed in transfected cells; host or cells: BHK tk'ts 13
T1 sequence (P30988 25-474): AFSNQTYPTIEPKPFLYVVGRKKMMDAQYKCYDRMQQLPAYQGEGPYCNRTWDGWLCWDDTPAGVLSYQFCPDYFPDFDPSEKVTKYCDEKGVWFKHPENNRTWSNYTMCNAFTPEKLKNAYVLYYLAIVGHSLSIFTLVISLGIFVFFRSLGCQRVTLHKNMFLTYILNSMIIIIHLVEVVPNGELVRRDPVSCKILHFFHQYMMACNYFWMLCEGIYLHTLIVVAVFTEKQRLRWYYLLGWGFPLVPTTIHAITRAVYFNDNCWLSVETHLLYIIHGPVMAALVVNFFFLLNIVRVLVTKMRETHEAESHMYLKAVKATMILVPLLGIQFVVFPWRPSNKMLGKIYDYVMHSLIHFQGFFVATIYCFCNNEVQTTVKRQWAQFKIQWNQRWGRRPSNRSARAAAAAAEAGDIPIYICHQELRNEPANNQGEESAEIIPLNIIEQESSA
The data set can be described thus: Assay (VIIa) binding to the human calcitonin receptor (whole cell). The conditions noted are these: read-out: hCT-R binding IC50. The protocol: Assay (VIIa)—Determination of Binding to the Human Calcitonin Receptor (Whole Cell Binding)
The binding assay was performed using a BHK tk'ts 13 cell line was stably transfected with the human calcitonin receptor, and a CRE-responsive luciferase reporter gene.
The day before the assay the cells were Seeded into Poly-D-Lysin coated 384W Opaque White, BD BioCoat plates (10000 cells/well) and Incubated overnight at 37° C., 5% CO2, 95% humidity. Then, the cells were washed in HBSS (4° C.), and incubated overnight at 4° C. in a binding buffer containing test compounds, 50 pM [125I]-human calcitonin, media w/o phenol red, 500 ml 0.1% ovalbumin (5 ml 10% ovalbumin) 10 mM Hepes (5 ml 1M) 1× Glutamin (5 ml 100×) 1% P/S (5 ml 100%) Complete (1 tablet/50 ml) 0.1% Pluronic F68®. The morning after, the plates were washed three times in HBSS (4° C.), and lyzed in Lysis buffer (0.1 M NaOH), 1% SDS. Scintillation cocktail (MicroScint40®) was added and the plates were shaken at 500 rpm for a short period. The plate was incubated at room temperature in the dark for 1 hour and Read on a TopCounter™ (Packard). The IC50 was calculated using (one site binding competition analysis) GraphPad Prism5 as a measure of receptor affinity. Assay (VIII)—Determination of Binding to the Rat Calcitonin Receptor

Data set [2] addresses T2, human amylin receptor (human calcitonin receptor + human RAMP3), BHK tk'ts 13 cells (Homo sapiens, UniProt O60896+P30988).
T2 construct: expressed in transfected cells; host or cells: BHK tk'ts 13
The data set can be described thus: Assay (Va) binding to the human amylin receptor (whole cell). The note with it: read-out: hAmylin-R binding IC50. The protocol: The day before the assay the cells were Seeded into Poly-D-Lysin coated 384W Opaque White, BD BioCoat plates (10000 cells/well) and Incubated overnight at 37° C., 5% CO2, 95% humidity.

The target in data set [3] is T3, human calcitonin (a) receptor, BHK570 cells (Homo sapiens, UniProt P30988).
T3 construct: host or cells: BHK570
T3 sequence (P30988 25-474): T1 sequence (P30988 25-474)
The data set can be described thus: Assay (II)b functional CRE-luciferase assay without albumin, human calcitonin receptor. Format: cell-based. The conditions noted are these: Tested without HSA; read-out: hCTR funct. EC50. An outline of the steps:
(§1)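 BHK570 cells stably expressing human calcitonin receptor with CRE-luciferase reporter, plus RAMP-3 for the amylin 3(a) line. Cells stimulated 3 hours at 37 °C in albumin-free assay medium (0.1% ovalbumin, 10 mM Hepes pH 7.4); cAMP-driven luciferase read by luminescence.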

A short description of data set [4]: Assay (IV) determination of solubility. Format: physicochemical. The protocol: Assay (IV)—Determination of Solubility
The mimylin peptide was dissolved in water at ˜500 nmol/ml and mixed 1:1 with a series of buffers (100 mM glycylglycine pH 3.0, 100 mM glycylglycine pH 4.0, 100 mM glycylglycine pH 5.0, 100 mM bistrispropane pH 6.0, 100 mM bistrispropane pH 6.5, 100 mM bistrispropane pH 7.0, 100 mM bistrispropane pH 7.5, 100 mM bistrispropane pH 8.0).

The target in data set [5] is T4, human calcitonin receptor (Homo sapiens, UniProt P30988).
T4 construct: expressed in transfected cells; host or cells: BHK tk'ts 13
T4 sequence (P30988 25-474): T1 sequence (P30988 25-474)
The data set can be described thus: Assay (VII) binding to the human calcitonin receptor (membrane, SPA). The conditions noted are these: membranes, 125I-Calcitonin; read-out: hCT-R binding IC50. As to the method: Assay (VII)—Determination of Binding to the Human Calcitonin Receptor (Membrane)
The binding assay was performed using scintillation proximity assay (SPA) beads (RPNQ0001) from PerkinElmer® and cell membranes prepared from a BHK tk'ts 13 cell line was stably transfected with the human calcitonin receptor and a CRE-responsive luciferase reporter gene. Membranes were prepared in the following way; the cells were rinsed with PBS and incubated with Versene for approximately 5 min before harvesting. The cells were flushed with PBS and the cell-suspension was centrifuged for 5 min at 1000 rpm. Cells were homogenized in a buffer containing 20 mM Na-HEPES and 10 mM EDTA (pH 7.4) and centrifuged at 20.000 rpm for 15 min. The resulting pellet was resuspended, homogenized and centrifuged (20.000 rpm, 15 min) in a buffer containing 20 mM Na-HEPES and 0.1 mM EDTA (pH 7.4, buffer 2). The resulting pellet was resuspended in buffer 2 and protein concentration was tested (BCA protein Assay, Pierce). The homogenate was kept cold during the whole procedure. The membranes were kept at −80° C. until use. Assay was performed in a 384 well Optiplate (PerkinElmer®) in a total volume of 40 ul. Membranes were mixed with SPA beads. Final concentration of membranes 35 ng/μL final and Final concentration of SPA beads was 0.05 mg/well. Test-compounds were dissolved in DMSO and further diluted in assay buffer (50 mM Hepes, pH 7.4, 1 mM CaCl2, 5 mM MgCl2, 0.1% OA and 0.02% Tween20). Radioligand ^125I-Calcitonin was dissolved in assay buffer and added to the Optiplate at a final concentration of 75 pM/well (approx. 30.000 cpm/10 ul). The final mixture was incubated for 120 min with shaking at 400 rpm at 25° C. prior to centrifugation (1500 rpm, 10 min). Samples were analyzed on TopCounter™ (Packard). The IC50 was calculated using (one site binding competition analysis) GraphPad Prism5 as a measure of receptor affinity.

For data set [6], the target named is T5, human amylin 3(a) receptor (human calcitonin receptor + RAMP-3), BHK570 cells (Homo sapiens, UniProt O60896+P30988).
T5 construct: host or cells: BHK570
T5 sequence (O60896 24-148, one chain of several): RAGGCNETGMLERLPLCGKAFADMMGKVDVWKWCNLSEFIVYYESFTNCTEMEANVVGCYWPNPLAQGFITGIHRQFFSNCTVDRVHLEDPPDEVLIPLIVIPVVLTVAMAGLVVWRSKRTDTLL
The data set can be described thus: Assay (II)a functional CRE-luciferase assay with albumin, human amylin receptor. It counts as cell-based. The conditions noted are these: Tested with HSA; read-out: hAmylin-R funct. EC50. The source says:
Assay(II)a—Human Calcitonin and Amylin Receptor Assay
1. Luciferase Assay Outline
Activation of calcitonin and amylin (co-expression of calcitonin receptor and receptor activity modifying proteins (RAMP)) receptors lead to increased intracellular concentrations of cAMP. Consequently, transcription is activated by promoters containing multiple copies of the cAMP response element (CRE). It is thus possible to measure amylin activity by the use of a CRE luciferase reporter gene introduced into BHK cells also expressing calcitonin or amylin receptors.
2. Construction of Calcitonin (a)—and Amylin 3(a)—Receptor/CRE-Luc Cell Line.
A BHK570 cell line was stably transfected with the human calcitonin receptor and a CRE-responsive luciferase reporter gene. The cell line was further transfected with RAMP-3, using standard methods. This turns the calcitonin receptor into an amylin 3(a) receptor. Methotrexate, Neomycin, and Hygromycin are selection markers for luciferase, the calcitonin receptor, and RAMP-3, respectively.
To perform activity assays, BHK calcitonin (a) receptor- or amylin 3(a)-receptor/CRE-luc cells were seeded in white 96 well culture plates at a density of about 20.000 cells/well. […] After incubation overnight at 37° C. and 5% CO2, the growth medium was replaced by 50 μl/well assay medium (DMEM (without phenol red), Glutamax™, 10% FBS, and 10 mM Hepes, pH 7.4). Further, 50 μl/well of standard or sample in assay buffer were added.
After 3 hours incubation at 37° C. and 5% CO2, the assay medium with standard or sample were removed and replaced by 100 μl/well PBS. Further, 100 μl/well LucLite™ was added. The plates were sealed and incubated at room temperature for 30 minutes. Finally, luminescence was tested on a TopCounter (Packard) in SPC (single photon counting) mode.

Data set [7] concerns the target T5, human amylin 3(a) receptor (human calcitonin receptor + RAMP-3), BHK570 cells. The data set can be described thus: Assay (II)b functional CRE-luciferase assay without albumin, human amylin receptor. Format: cell-based. The conditions noted are these: Tested without HSA; read-out: hAmylin-R funct. EC50. The method in brief:
as §1

IC50, EC50 and solubility data for three compounds are collected here from patent US9593149B2, “Amylin and calcitonin receptor agonist” (Novo Nordisk A/S, priority 2014, dated 2017).

Peptide text beside a SMILES is read from it.

T2 sequence (O60896 24-148, one chain of several): as above

As to `CC(C)C[C@H](NC(=O)[C@H](C)NC(=O)[C@H](C)NC(=O)[C@@H](NC(=O)[C@H](CO)NC(=O)[C@H](CC(C)C)NC(=O)[C@H](CCC(=O)O)NC(=O)[C@H](CO)NC(=O)[C@H](C)NC(=O)[C@@H](N)CCC(=O)O)[C@@H](C)O)C(=O)NCC(=O)N[C@@H](CCCNC(=N)N)C(=O)N[C@@H](CC(C)C)C(=O)N[C@@H](CO)C(=O)N[C@@H](C)C(=O)N[C@@H](CCC(=O)O)C(=O)N[C@@H](CC(C)C)C(=O)N[C@@H](Cc1c[nH]cn1)C(=O)N[C@@H](CCC(=O)O)C(=O)N[C@@H](CC(C)C)C(=O)N[C@@H](C)C(=O)N[C@H](C(=O)N[C@@H](CC(C)C)C(=O)N1CCC[C@H]1C(=O)N[C@@H](CCCNC(=N)N)C(=O)N[C@H](C(=O)N[C@@H](CCC(=O)O)C(=O)N[C@H](C(=O)NCC(=O)N[C@@H](CO)C(=O)NCC(=O)N[C@@H](CO)C(=O)N1CCC[C@H]1C(N)=O)[C@@H](C)O)[C@@H](C)O)[C@@H](C)O` [22bb, H—EASELSTAALGRLSAELHELATLPRTETGSGSP—NH2] (H-EASELSTAALGRLSAELHELATLPRTETGSGSP-NH2), the IC50 in data set [1] came to 0.481 nM; in data set [2], 0.469 nM. For the same compound, the EC50 in data set [3] was 0.002 nM.

`CC(=O)N[C@@H](C)C(=O)N[C@@H](CO)C(=O)N[C@@H](CCC(=O)O)C(=O)N[C@@H](CC(C)C)C(=O)N[C@@H](CO)C(=O)N[C@H](C(=O)N[C@@H](C)C(=O)N[C@@H](C)C(=O)N[C@@H](CC(C)C)C(=O)NCC(=O)N[C@@H](CCCNC(=N)N)C(=O)N[C@@H](CC(C)C)C(=O)N[C@@H](CO)C(=O)N[C@@H](C)C(=O)N[C@@H](CCC(=O)O)C(=O)N[C@@H](CC(C)C)C(=O)N[C@@H](Cc1c[nH]cn1)C(=O)N[C@@H](CCC(=O)O)C(=O)N[C@@H](CC(C)C)C(=O)N[C@@H](C)C(=O)N[C@H](C(=O)N[C@@H](CC(C)C)C(=O)N1CCC[C@H]1C(=O)N[C@@H](CCCNC(=N)N)C(=O)N[C@H](C(=O)N[C@@H](CCCCNC(=O)CC[C@H](NC(=O)CCCCCCCCCCCCCCCCCCC(=O)O)C(=O)O)C(=O)N[C@H](C(=O)NCC(=O)N[C@@H](CO)C(=O)NCC(=O)N[C@@H](CO)C(=O)N1CCC[C@H]1C(N)=O)[C@@H](C)O)[C@@H](C)O)[C@@H](C)O)[C@@H](C)O` [compound 71, [N-terminal(acetyl), des1, 27K(C20 diacid-gGlu), 30S, 31G]mimylin]: the solubility at 18 h is no less than 200 µM in data set [4] (bistrispropane buffer, pH 6.5); no less than 200 µM in data set [4] (bistrispropane buffer, pH 7.5); no less than 200 µM in data set [4] (bistrispropane buffer, pH 6.0); no less than 200 µM in data set [4] (bistrispropane buffer, pH 7.0); no less than 200 µM in data set [4] (bistrispropane buffer, pH 8.0); no less than 200 µM in data set [4] (glycylglycine buffer, pH 3.0). Further, the solubility at 18 h was no less than 200 µM in data set [4] (glycylglycine buffer, pH 4.0) and no less than 200 µM in data set [4] (glycylglycine buffer, pH 5.0). The concentration for half-maximal inhibition (IC50) in data set [5] was determined as 0.07 nM. The concentration for a half-maximal effect (EC50) was 0.164 nM in data set [6], 0.03 nM in data set [3] and 0.053 nM in data set [7].

As for `CC(C)C[C@H](NC(=O)[C@H](C)NC(=O)[C@H](C)NC(=O)[C@@H](NC(=O)[C@H](CO)NC(=O)[C@H](CC(C)C)NC(=O)[C@H](CCC(=O)O)NC(=O)[C@H](CO)NC(=O)[C@H](C)NC(=O)[C@@H](N)CCC(=O)O)[C@@H](C)O)C(=O)NCC(=O)N[C@@H](CCCNC(=N)N)C(=O)N[C@@H](CC(C)C)C(=O)N[C@@H](CO)C(=O)N[C@@H](C)C(=O)N[C@@H](CCC(=O)O)C(=O)N[C@@H](CC(C)C)C(=O)N[C@@H](Cc1c[nH]cn1)C(=O)N[C@@H](CCC(=O)O)C(=O)N[C@@H](CC(C)C)C(=O)N[C@@H](C)C(=O)N[C@H](C(=O)N[C@@H](CC(C)C)C(=O)N1CCC[C@H]1C(=O)N[C@@H](CCCNC(=N)N)C(=O)N[C@H](C(=O)N[C@@H](CCC(=O)O)C(=O)N[C@H](C(=O)NCC(=O)N1CCC[C@H]1C(=O)N[C@@H](CCC(=O)O)C(=O)N[C@@H](CO)C(=O)N1CCC[C@H]1C(N)=O)[C@@H](C)O)[C@@H](C)O)[C@@H](C)O` [Ex. #1, mimylin] (H-EASELSTAALGRLSAELHELATLPRTETGPESP-NH2), the figures for the IC50 in data set [1] and in data set [2] were 0.431 nM and 0.511 nM, respectively. In addition, the half-maximal effective concentration (EC50) in data set [7] turned out to be 0.003 nM.

A word on the IC50: it is the concentration at which inhibition is half-maximal. Usually EC50 stands for the concentration at which the effect is half-maximal. Usually solubility stands for the concentration that dissolves in the medium under given conditions. A high value points to a readily soluble substance.
